Patent US20230067666A1, “METHOD FOR PREPARING COUMARIN COMPOUNDS SUBSTITUTED BY AMIDOALKYL AT 3-POSITION, THE PRODUCTS AND RELATED INTERMEDIATES THEREOF” (Fosun Orinove PharmaTech, Inc., priority 2019, published 2023)
Several values for one entry are separate records, joined by “and”; a condition that tells them apart may be missing. Identical values can stand only once.

What was measured:
Assay type in all cases: physicochemical
[1] = crystal form I stability test (HPLC purity and XRPD after storage); conditions: for chemical and physical stability (result in words): 40° C./75% RH and 60° C. for 14 days, HPLC purity and XRPD
Protocol: X-ray powder diffractometer: Bruker D8 advance X, the radiation source is Cu-Ku, the scanning range of the test is 3° (2θ)˜40° (2θ), the scanning step size is 0.02° (2θ), and the scanning rate is 0.3 sec/step. HPLC (purity determination): Waters Acquity Arc liquid chromatography system or any equivalent; Column: EclipsexDB C18, 4.6×150 mm, 3.5 μm, or any equivalent; Column temperature: 30° C.; detection wavelength: 210 nm; mobile phase A: 0.05% trifluoroacetic acid aqueous solution; mobile phase B: 0.05% trifluoroacetic acid acetonitrile solution; concentration gradient running time: 20 minutes. Two samples of the crystal form I were placed under the conditions of 40° C./75% relative humidity (RH), and the temperature in the oven was 60° C. (with humidity not controlled) for 14 days.

[2] = particle size distribution (PSD) test
Protocol: In one embodiment, the particle size distribution (PSD) of the crystal form I is determined using a Malvern Mastersizer 2000. The parameters used may be: pump speed: 2500 rpm; dispersant volume: 800 mL; dispersant: water; dispersion medium: 1% Tween 80. Crystal form I is a granular crystal, and the particle size is 50-100 μm observed under a microscope (Nikon Eclipse LV100POL). The particle size distribution (PSD) of the crystal form I was determined using a Malvern Mastersizer 2000. Pump speed: 2500 rpm; Dispersant volume: 800 mL; Shielding degree: 10%-20%; Dispersant: water; Dispersion medium: 1% Tween 80; Background measurement: 12s; Sample measurement: 12s; Measurement cycle: 3.

[3] = thermogravimetric analysis (TGA) test; conditions: heated to 200° C.
Text: Thermogravimetric analysis (TGA) is a common method for determining the thermal stability of compounds. Herein, TGA is also used to determine the hydration state of a compound. The rate of temperature rise during the test have a certain impact on the pattern. For example, an excessively high rate of temperature rise is not conducive to the detection of intermediate products. TGA patterns can be measured, for example, on a model TA TGA Q500 instrument. In one embodiment, the thermogravimetric analysis pattern of the crystal form I is determined by the following method: TGA thermogravimetric analyzer: TA TGA Q500; temperature range: room temperature ˜350° C.; scanning rate: 10° C./min; protective gas: nitrogen; flow rate: 40 mL/min (balance) or […] (sample). TGA Thermogravimetric Analyzer: TA TGA Q500, temperature range is from room temperature to 350° C., scanning rate is 10° C./min, the protective gas is nitrogen, and the flow rate is 40 mL/min (balance) or 60 mL/min (sample).

[4] = powder properties (bulk density, tap density, Carr index, angle of repose)
[5] = dynamic vapor sorption (DVS) test; conditions: for hygroscopicity (result in words): DVS
Text: Dynamic Vapor Sorption (DVS) is a common method to investigate the moisture adsorption of drugs, excipients or packaging materials through a dynamically accelerated moisture adsorption process. The moisture adsorption isotherm is usually used to describe the degree of correlation between the moisture content of the sample and the relative humidity during the moisture adsorption process of the sample. DVS patterns can be measured, for example, on a model IGAsorp instrument. In one embodiment, the dynamic vapor sorption pattern of the crystal form I is determined by the following method: DVS dynamic vapor sorption instrument: IGAsorp; temperature: 25° C.; temperature stability: 0.1° C./min; carrier gas: nitrogen; flow rate: 250 mL/min; scanning: 2; minimum time: 30 min; maximum time: 2 hours; upper waiting limit: 98%; humidity gradient: adsorption: 0, 10, 20, 30, 40, 50, 60, 70, 80, 90; desorption: 80, 70, 60, 50, 40, 30, 20, 10, 0. DVS Dynamic Vapor Sorption Apparatus: IGAsorb, the temperature is 25° C., the temperature stability: 0.1° C./min, the carrier gas is nitrogen, the flow rate is 250 mL/min, scanning: 2, the minimum time is 30 min, the maximum time is 2 hours, the upper waiting limit is 98%, humidity gradient: adsorption: 0, 10, 20, 30, 40, 50, 60, 70, 80, 90; desorption: 80, 70, 60, 50, 40, 30, 20, 10, 0.

[6] = test of stability against mechanical treatment (grinding, XRPD); conditions: ground in a mortar for 2 min and 5 min
Protocol: In one embodiment, the stability of the crystal form I against mechanical treatment is determined by the following method: the crystal form I is placed in a mortar, ground for 2 min and 5 min respectively, and XRPD detection is carried out to analyze the solid after grinding. The crystal form I was placed in a mortar, ground for 2 min and 5 min, respectively, and XRPD detection was carried out to analyze the solid after grinding.

[7] = Malvern Mastersizer 2000, dispersant water, 1% Tween 80

Structure (SMILES): COc1cc2c(C)c(CC(=O)N3CCOCC3)c(=O)oc2c(C=O)c1O [crystal form I]
- chemical and physical stability (result in words) [1]: good chemical and physical stability
- chemical and physical stability (result in words) ([1]; listed as Orin1001 crystal form I): excellent stability
- HPLC purity: peak area % ([1]; 40° C./75% RH, the 7th day): 99.62% and 99.54%
- HPLC purity: peak area % ([1]; 40° C./75% RH, the 14th day): 99.54% and 99.56%
- HPLC purity: peak area % ([1]; 60° C. (in oven), humidity not controlled, the 7th day): 99.64% and 99.58%
- HPLC purity: peak area % ([1]; 60° C. (in oven), humidity not controlled, the 14th day): 99.52% and 99.54%
- HPLC purity: peak area % ([1]; TO column of the 7th day table): 99.60% and 99.58%
- HPLC purity: peak area % ([1]; TO column of the 14th day table): 99.53% and 99.54%
- D(0.1) [2, 7]: 67.1 μm
- D(0.5) [2, 7]: 115.5 μm
- D(0.9) [2, 7]: 206.4 μm
- particle size observed under a microscope ([2]; Nikon Eclipse LV100POL): 50-100 μm
- weight loss (TGA) [3]: about 0.017%
- Carr index [4]: 20%
- angle of repose [4]: 30.6 °
- bulk density [4]: 0.72 g/mL
- fluidity (result in words) [4]: very good
- tap density [4]: 0.90 g/mL
- hygroscopicity (result in words) ([5]; 25° C.): only slightly hygroscopic
- hygroscopicity (result in words) ([5]; 25° C., listed as Orin1001 crystal form I): slightly hygroscopic
- crystal form after DVS measurement (XRPD) ([5]; XRPD before and after DVS): did not change
- weight gain (DVS) ([5]; after equilibration at 90% relative humidity, 25° C.): 0.34%
- crystal form after grinding (XRPD) [6]: the crystal form does not change
